From patent US12673944B2, “Compounds having inhibitory activity against glucosylceramide synthase or pharmaceutically acceptable salt thereof, processes for preparing the same, and pharmaceutical compositions comprising the same” (YUHAN CORPORATION, priority 2019, dated 2026)
pIC50: −log10 of the molar value. Like-named read-outs stand apart in the source and are kept apart here.

Assays:
[1] = tested on: GM1 production in Jurkat cells; experiment: cells; type: cell-based
[2] = molecular target: T1, glucosylceramide synthase (GCS) (Homo sapiens, UniProt Q16739); experiment: GCS enzyme inhibition assay (A549 cell lysate, NBD C6-ceramide, HPLC fluorescence); type: biochemical; settings: inhibitory activity against GCS, 37° C., 90 minutes
T1 construct: The obtained supernatant was used; host or cells: A549 cells (lysate supernatant after sonication)
T1 sequence (Q16739 1-394): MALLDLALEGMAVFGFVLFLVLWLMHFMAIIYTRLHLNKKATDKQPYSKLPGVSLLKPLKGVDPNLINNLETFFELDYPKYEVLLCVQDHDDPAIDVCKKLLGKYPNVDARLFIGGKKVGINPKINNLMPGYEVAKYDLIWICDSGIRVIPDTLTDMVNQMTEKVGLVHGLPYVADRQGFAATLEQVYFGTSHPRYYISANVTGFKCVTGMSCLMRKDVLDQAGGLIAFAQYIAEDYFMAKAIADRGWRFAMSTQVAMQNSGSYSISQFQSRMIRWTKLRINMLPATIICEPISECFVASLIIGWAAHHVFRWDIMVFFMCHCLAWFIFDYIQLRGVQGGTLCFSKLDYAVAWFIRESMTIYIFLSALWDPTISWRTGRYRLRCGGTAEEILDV
Outline: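 A549 cell lysate (50 mM HEPES pH 7.3) served as GCS source; reactions ran 90 min at 37° C, were stopped with chloroform/methanol and lipids extracted. Activity taken as GlcCer/(Cer+GlcCer) peak area, normalised between DMSO and ibiglustat controls.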

SMILES	pIC50 ([1]; Homo sapiens, Jurkat, 72 h)	pIC50 [2]	pIC50 [1]
CN1CCOc2cc(-c3ccc4c(c3)OCCC4NC(=O)O[C@@H]3CN4CCC3CC4)ccc21 (stereo partly drawn) [Example 63, (S)-quinuclidin-3-yl (7-(4-methyl-3,4-dihydro-2H-benzo[b][1,4]oxazin-7-yl)chroman-4-yl)carbamate]	7.57	8.88	–
CC1(C)COc2cc(-c3cc(Cl)cc(Cl)c3)ccc2C1NC(=O)O[C@@H]1CN2CCC1CC2 (stereo partly drawn) [Example 179, (S)-quinuclidin-3-yl (7-(3,5-dichlorophenyl)-3,3-dimethylchroman-4-yl)carbamate]	8.35	8.88	–
CC(C)c1cccc(-c2ccc3c(c2)COCC3NC(=O)O[C@@H]2CN3CCC2CC3)c1 (stereo partly drawn) [Example 313, (S)-quinuclidin-3-yl (7-(3-isopropylphenyl)isochroman-4-yl)carbamate]	7.46	8.41	–
COc1ccc(OC)c(-c2ccc3c(c2)OCC(C)(C)C3NC(=O)O[C@@H]2CN3CCC2CC3)c1 (stereo partly drawn) [Example 126, (S)-quinuclidin-3-yl (7-(2,5-dimethoxyphenyl)-3,3-dimethylchroman-4-yl)carbamate]	9.07	9.24	–
O=C(NC1CCOc2ccc(-c3ccccc3C(F)(F)F)cc21)O[C@@H]1CN2CCC1CC2 (stereo partly drawn) [Example 93, (S)-quinuclidin-3-yl (6-(2-(trifluoromethyl)phenyl)chroman-4-yl)carbamate]	7.10	8.37	–
CC1(C)COc2cc(-c3ccc(C#N)c(F)c3)ccc2C1NC(=O)O[C@@H]1CN2CCC1CC2 (stereo partly drawn) [Example 291, (S)-quinuclidin-3-yl (7-(4-cyano-3-fluorophenyl)-3,3-dimethylchroman-4-yl)carbamate]	8.05	8.99	–
CC1(C)COc2cc(-c3cc(OC(F)(F)F)ccc3Cl)ccc2C1NC(=O)O[C@@H]1CN2CCC1CC2 (stereo partly drawn) [Example 142, (S)-quinuclidin-3-yl (7-(2-chloro-5-(trifluoromethoxy)phenyl)-3,3-dimethylchroman-4-yl)carbamate]	9.72	9.17	–
COc1ccc(-c2ccc3c(c2)OCC(C)(C)C3NC(=O)O[C@@H]2CN3CCC2CC3)cc1C(F)(F)F (stereo partly drawn) [Example 210, (S)-quinuclidin-3-yl (7-(4-methoxy-3-(trifluoromethyl)phenyl)-3,3-dimethylchroman-4-yl)carbamate]	–	8.80	7.74
O=C(NC1CCOc2cc(-c3cccc(F)c3)ccc21)O[C@@H]1CN2CCC1CC2 (stereo partly drawn) [Example 1, (S)-quinuclidin-3-yl (7-(3-fluorophenyl)chroman-4-yl)carbamate]	8.77	8.59	–
O=C(NC1CCOc2cc(-c3ccc(C4CC4)cc3)ccc21)O[C@@H]1CN2CCC1CC2 (stereo partly drawn) [Example 35, (S)-quinuclidin-3-yl (7-(4-cyclopropylphenyl)chroman-4-yl)carbamate]	8.26	8.56	–
CC1(C)COc2cc(-c3ccc(F)c(F)c3F)ccc2C1NC(=O)O[C@@H]1CN2CCC1CC2 (stereo partly drawn) [Example 217, (S)-quinuclidin-3-yl (3,3-dimethyl-7-(2,3,4-trifluorophenyl)chroman-4-yl)carbamate]	8.13	9.26	–
CCOc1ccc(-c2ccc3c(c2)OCC(C)(C)C3NC(=O)O[C@@H]2CN3CCC2CC3)cn1 (stereo partly drawn) [Example 253, (S)-quinuclidin-3-yl (7-(6-ethoxypyridin-3-yl)-3,3-dimethylchroman-4-yl)carbamate]	8.19	9.12	–
CCOc1ccccc1-c1ccc2c(c1)OCC(C)(C)C2NC(=O)O[C@@H]1CN2CCC1CC2 (stereo partly drawn) [Example 186, (S)-quinuclidin-3-yl (7-(2-ethoxyphenyl)-3,3-dimethylchroman-4-yl)carbamate]	8.55	9.42	–
COc1ccc(Cl)c(-c2cc3c(cc2F)C(NC(=O)O[C@@H]2CN4CCC2CC4)C(C)(C)CO3)c1 (stereo partly drawn) [Example 340, (S)-quinuclidin-3-yl (7-(2-chloro-5-methoxyphenyl)-6-fluoro-3,3-dimethylchroman-4-yl)carbamate]	8.62	9.32	–
CC1(C)COc2cc(-c3cncc4ccccc34)ccc2C1NC(=O)O[C@@H]1CN2CCC1CC2 (stereo partly drawn) [Example 192, (S)-quinuclidin-3-yl (7-(isoquinolin-4-yl)-3,3-dimethylchroman-4-yl)carbamate]	–	9.04	8.87
COc1c(C)cc(-c2ccc3c(c2)OCC(C)(C)C3NC(=O)O[C@@H]2CN3CCC2CC3)cc1C (stereo partly drawn) [Example 255, (S)-quinuclidin-3-yl (7-(4-methoxy-3,5-dimethylphenyl)-3,3-dimethylchroman-4-yl)carbamate]	8.29	8.92	–
CC1(C)COc2cc(-c3cccc4cn[nH]c34)ccc2C1NC(=O)O[C@@H]1CN2CCC1CC2 (stereo partly drawn) [Example 178, (S)-quinuclidin-3-yl (7-(1H-indazol-7-yl)-3,3-dimethylchroman-4-yl)carbamate]	8.36	8.94	–
O=C(NC1CCOc2cc(-c3cccc(-c4ccccc4)c3)ccc21)O[C@@H]1CN2CCC1CC2 (stereo partly drawn) [Example 59, (S)-quinuclidin-3-yl (7-([1,1′-biphenyl]-3-yl)chroman-4-yl)carbamate]	8.65	9.52	–
CC1(C)COc2cc(/C=C/c3ccc(-c4ccccc4)cc3)ccc2C1NC(=O)O[C@@H]1CN2CCC1CC2 (stereo partly drawn) [Example 282, (S)-quinuclidin-3-yl (7-((E)-2-([1,1′-diphenyl]-4-yl)vinyl)-3,3-dimethylchroman-4-yl)carbamate]	8.70	8.79	–
O=C(NC1CCOc2ccc(-c3ccc(F)cc3)cc21)O[C@@H]1CN2CCC1CC2 (stereo partly drawn) [Example 85, (S)-quinuclidin-3-yl (6-(4-fluorophenyl)chroman-4-yl)carbamate]	6.65	8.01	–
CCOc1cccc(-c2ccc3c(c2)OCCC3NC(=O)O[C@@H]2CN3CCC2CC3)c1 (stereo partly drawn) [Example 21, (S)-quinuclidin-3-yl (7-(3-ethoxyphenyl)chroman-4-yl)carbamate]	8.34	9.17	–
O=C(NC1CCOc2cc(-c3ccsc3)ccc21)O[C@@H]1CN2CCC1CC2 (stereo partly drawn) [Example 64, (S)-quinuclidin-3-yl (7-(thiophen-3-yl)chroman-4-yl)carbamate]	7.72	8.88	–
O=C(NC1CCOc2ccc(-c3ccc(Cl)cc3)cc21)O[C@@H]1CN2CCC1CC2 (stereo partly drawn) [Example 88, (S)-quinuclidin-3-yl (6-(4-chlorophenyl)chroman-4-yl)carbamate]	6.80	8.03	–
CC(C)Oc1ccc(-c2ccc3c(c2)OCC(C)(C)C3NC(=O)O[C@@H]2CN3CCC2CC3)cc1F (stereo partly drawn) [Example 261, (S)-quinuclidin-3-yl (7-(3-fluoro-4-isopropoxyphenyl)-3,3-dimethylchroman-4-yl)carbamate]	8.59	9.19	–
Cc1ccc(-c2ccc3c(c2)OCC(C)(C)C3NC(=O)O[C@@H]2CN3CCC2CC3)cc1F (stereo partly drawn) [Example 228, (S)-quinuclidin-3-yl (7-(3-fluoro-4-methylphenyl)-3,3-dimethylchroman-4-yl)carbamate]	8.89	9.26	–
CC1(C)COc2cc(-c3ccc(F)cc3Cl)ccc2C1NC(=O)O[C@@H]1CN2CCC1CC2 (stereo partly drawn) [Example 231, (S)-quinuclidin-3-yl (7-(2-chloro-4-fluorophenyl)-3,3-dimethylchroman-4-yl)carbamate]	8.82	9.21	–
